Paper PMC9695592, “Phenotypic Evaluation of Nucleoside Analogues against Trypanosoma cruzi Infection: In Vitro and In Vivo Approaches” (Molecules, 2022)
Like-named read-outs stand apart in the source and are kept apart here.

Key:
[1] = test system: intracellular forms of T. cruzi (Y strain) in 2D H9C2; assay: Activity against T. cruzi (Y strain) infection of H9C2 monolayers (2D); assay type: cell-based, Trypanosoma cruzi; settings: 10 µM, seven days of incubation, 95% confidence interval in brackets
Description: (§1) L929 cell lines were used to evaluate the effect of the nucleoside derivatives on the cellular viability of mammalian host cells and to assess their activity against intracellular forms of T. cruzi (Tulahuen strain expressing E. coli β-galactosidase gene, DTU VI) as reported. 2D and 3D culture systems of rat cardiomyoblast cell lines (H9C2(2-1)) were used to evaluate cardiotoxicity and to test the derivatives’ activity on intracellular forms (Y strain, DTU II). In all assays, the cell cultures were maintained at 37 °C under an atmosphere of 5% CO2.
(§2) Bloodstream trypomastigotes of the Y strain (DTU II) were obtained by cardiac puncture of infected Swiss Webster mice on the parasitemia peak to perform drug sensitivity assays. Trypomastigote forms of the Tulahuen-β gal strain were collected from the supernatant of previously infected L929 cell cultures (host/parasite cell ratio 10:1). The intracellular forms T. cruzi were studied by the infection of L929 and H9C2 (2D and 3D) cell cultures infected for 48 and 24 h with trypomastigotes of Tulahuen-β gal and Y strains, respectively. The Leishmania mexicana-Cas9 T7 strain (LmexCas9) was derived from L. mexicana WT promastigotes by expression of the Streptococcus pyogenes Cas9 nuclease gene ‘Cas9′ and maintained on 32 μg/mL hygromycin [51]. This strain and the derived strains Cas9^ΔNT1 and Cas9^ΔNT1+TcrNT2 were cultured in HOMEM medium supplemented with 10% of FBS and 1% Penicillin-Streptomycin antibiotic in unvented flasks at 25 °C [52]. The Cas9^ΔNT1 strain is identical to Cas9 except that the LmexNT1.1/NT1.2 locus encoding the L. mexicana adenosine/ pyrimidine transporters was excised using Cas9 [17, 40]. Cas9^ΔNT1+TcrNT2 is the further modification of that strain by the expression of the T. cruzi nucleoside transporter 2 (TcrNT2) gene in it, using the vector pNUS-HcN [53]. Appropriate antibiotics were added for the selection and maintenance of transfectants.
In an initial step, nucleoside derivatives were assayed against intracellular forms of Tulahuen-β gal strain in L929 cell lines. Assays were performed in sterile 96-well microtiter plates with 4 × 10^3 cells/well and 4 × 10^4 parasites/well (host/parasite cell ratio 1:10). […] Parasite burden was analyzed by adding the substrate CPRG (chlorophenol red ß-D-galactopyranoside) followed by measurements (spectrophotometrically) at 570 nm. The results were expressed as percentage of reduction in parasite growth compared to untreated cells, and EC50 values were calculated. […] After seven days of treatment, the cultures were fixed, stained with Giemsa, and 200 cells were quantified by light microscopy. The results were expressed as % of reduction in parasite burden. […]

[2] = test system: bloodstream trypomastigotes of T. cruzi (Y strain); assay: Activity against bloodstream trypomastigotes, light microscopy counting; assay type: cell-based; settings: Trypanosoma cruzi, 24 h of compound incubation, 95% confidence interval in brackets; for EC50: read-out: Activity upon Bloodstream Forms EC50; for EC90: read-out: Activity upon Bloodstream Forms EC90
Description: as §2
To analyze the compound activity against bloodstream trypomastigotes of T. cruzi (Y strain), […] of parasite were added in 96-well microtiter plates and incubated for 2 or for 24 h at 37 °C in RPMI culture medium in the presence or absence of each compound (up to 30 µM). The death rates were quantified by light microscopy using a Neubauer chamber to determine the EC50 [49, 58]. The data results from two independent experiments performed in duplicate were obtained.

[3] = test system: H9C2 2D cultures; assay: Cardiotoxicity on H9C2 monolayers (2D), PrestoBlue; assay type: cell-based; settings: Rattus norvegicus
Description: as §1
L929 cells seeded in sterile 96-well microtiter plates were exposed or not to increasing concentrations (up to 200 µM) of the compounds. […] Cellular viability was assessed through AlamarBlue® (resazurin sodium salt) colorimetric assay, and the results were expressed as % reduction in cell growth/viability compared to untreated control, and an IC50 value determined. For the assays using H9C2 cultures, 25 × 10^3 cells/well were seeded in a 96-well microtiter plates (flat and U bottoms, precoated with agarose 1% for preparing 2- and 3D matrices, respectively) and maintained at 37 °C [48, 54].
[…] Cell viability was measured using the PrestoBlue® (PB) colorimetric assay, the results evaluated as % reduction in cell growth/viability compared to untreated control, and an IC50 value determined. The data results from at least two independent experiments done in at least duplicates.

[4] = test system: intracellular forms of T. cruzi (Tulahuen strain); assay: Activity against intracellular forms of T. cruzi (Tulahuen-β gal strain) in L929 cultures, CPRG readout; assay type: cell-based; settings: Trypanosoma cruzi, 168 h; Tulahuen strain in L929, seven days of compound incubation; 95% confidence interval in brackets
Description: as §1, §2
In an initial step, nucleoside derivatives were assayed against intracellular forms of Tulahuen-β gal strain in L929 cell lines. Assays were performed in sterile 96-well microtiter plates with 4 × 10^3 cells/well and 4 × 10^4 parasites/well (host/parasite cell ratio 1:10). After the establishment of infection (48 h), increasing concentrations (up to 30 µM) of the compounds were added, and the cultures maintained at 37 °C for seven days. Untreated-infected controls represented 100% growth. Parasite burden was analyzed by adding the substrate CPRG (chlorophenol red ß-D-galactopyranoside) followed by measurements (spectrophotometrically) at 570 nm. The results were expressed as percentage of reduction in parasite growth compared to untreated cells, and EC50 values were calculated. Bz was used as a positive control. To investigate the effect of the compounds against intracellular forms of the Y strain, rat cardiomyoblasts (2D cultures of H9C2) were seeded in 24-well plates and, after 24 h of platting, were infected with bloodstream trypomastigotes (20 parasites per host cell). After 24 h of interaction, the infected cultures were rinsed to remove non-internalized parasites and incubated with 10 µM of the tested compounds. After seven days of treatment, the cultures were fixed, stained with Giemsa, and 200 cells were quantified by light microscopy. The results were expressed as % of reduction in parasite burden. The data results from two independent experiments performed in at least duplicate were obtained.

[5] = H9c2, 24 h, read-out: H9C2 IC50 µM
[6] = H9c2, 168 h, read-out: Cardiotoxic profile IC50 (µM) 2D

SMILES	% of Death Rate by Light Microscopy Quantification 2D [1]	EC50 [2] [µM]	EC90 [2] [µM]	IC50 [3, 5] [µM]	IC50 [3, 6] [µM]	EC50 [4] [µM]	EC90 [4] [µM]
O=C(Cn1ccnc1[N+](=O)[O-])NCc1ccccc1 [Bz, Benznidazole, reference compound]	100%	6.9	19.6	> 300	> 200	1.97	5.54
Nc1ncnc2c1c(-c1ccc(F)c(F)c1)cn2[C@@H]1O[C@H](CO)[C@@H](O)[C@H]1O [FH11706, 7-(3,4-Difluorophenyl)tubercidin]	99.25 (98.83 to 99.67) %	17.6	> 30	> 300	47.7	1.11	> 30
Nc1ncnc2c1c(-c1ccc(Cl)c(F)c1)cn2[C@@H]1O[C@H](CO)[C@@H](O)[C@H]1O [FH10714, 7-(3-fluoro,4-chlorophenyl)tubercidin]	100%	13.4	> 30	> 300	41.8	0.47	6.19
Nc1ncnc2c1c(-c1ccc(Cl)c(Cl)c1)cn2[C@@H]1O[C@H](CO)C[C@H]1O [FH8513, 7-(3,4-dichlorophenyl)-3′-deoxytubercidin]	99.14 (97.9 to 100) %	5.9	16.7	268	18.6	0.2	1.61
